The values that follow are results of earlier work, collected in PMC2803438 (Current Chemical Genomics, 2008).

Usually Kd stands for a measure of binding affinity in units of concentration. As usually defined, the IC50 is the concentration needed to halve the response being measured.

The target of series [1] is Hsc70. The settings on record: read-out: Kd, binding to Hsc70; moderate affinity.
In series [2] the test system is Hsc70. The conditions noted are these: read-out: IC50 for binding to Hsc70.

Consider `N=C(N)NCCCCCCC(=O)NC(O)C(=O)NCCCCNCCCN` (centres unmarked) [15-deoxyspergualin], for which the Kd at Hsc70 [1] was 0.5 µM. For the compound NIVRKKK, the 50% inhibitory concentration (IC50) in the series on Hsc70 [2] was 2.8 µM.
